Reference: patent US7544497B2, “Compositions for manipulating the lifespan and stress response of cells and organisms” (President and Fellows of Harvard College, priority 2003, dated 2009)

Legend:
[1] = tested on: lysine 382 of p53 in U2OS osteosarcoma cells; test: p53 Ac-K382 Western blot after UV radiation; format: cell-based, human
SIRT1 deacetylase = molecular target: T1, SIRT1 deacetylase (Homo sapiens, UniProt Q96EB6); test: High-throughput SIRT1 screening protocol (384 well); format: biochemical; conditions: 200 μM NAD+, 5 μM Fluor de Lys-SIRT1 substrate; roughly 50 μM
T1 construct: purchased BIOMOL
T1 sequence (Q96EB6 1-747): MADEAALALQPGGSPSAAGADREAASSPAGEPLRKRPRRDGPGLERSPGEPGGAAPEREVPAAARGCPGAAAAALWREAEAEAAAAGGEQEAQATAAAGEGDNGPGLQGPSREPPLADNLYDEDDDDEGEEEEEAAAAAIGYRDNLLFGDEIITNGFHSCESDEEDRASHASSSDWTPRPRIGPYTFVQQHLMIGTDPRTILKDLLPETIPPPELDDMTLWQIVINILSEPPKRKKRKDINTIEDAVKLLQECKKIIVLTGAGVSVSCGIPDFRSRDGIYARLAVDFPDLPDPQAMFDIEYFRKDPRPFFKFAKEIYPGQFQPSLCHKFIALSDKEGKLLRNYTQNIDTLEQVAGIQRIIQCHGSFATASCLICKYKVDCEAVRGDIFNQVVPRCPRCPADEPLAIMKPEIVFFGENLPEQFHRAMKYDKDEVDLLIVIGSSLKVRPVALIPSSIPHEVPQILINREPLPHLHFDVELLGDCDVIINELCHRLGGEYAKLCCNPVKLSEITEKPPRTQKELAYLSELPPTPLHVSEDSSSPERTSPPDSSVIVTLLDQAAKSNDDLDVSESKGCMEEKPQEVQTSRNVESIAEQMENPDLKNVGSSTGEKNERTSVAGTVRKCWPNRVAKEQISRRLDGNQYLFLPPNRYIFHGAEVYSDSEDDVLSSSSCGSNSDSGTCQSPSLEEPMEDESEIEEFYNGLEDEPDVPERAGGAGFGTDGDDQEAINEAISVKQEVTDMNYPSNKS
Method: The reaction mixture contains (final): 0.5 units/reaction SIRT1 deacetylase (BIOMOL); 200 μM NAD^+; 5 μM Fluor de Lys-SIRT1 substrate (BIOMOL); buffer (25 mM Tris/Cl, pH 8.0, 137 mM NaCl, 2.7 mM KCl, 1 mM MgCl2, and 1 mg/ml BSA). In addition, a reaction mixture containing no enzyme was made so that each well receiving compound has a corresponding “no enzyme control” well. Reactions were performed in black 384 well plates (NUNC) in a final volume of 25 μl/well.
The reactions were started by combining enzyme and substrate in a reaction mixture immediately prior to aliquoting in plates (or substrate only for “no enzyme control” plates). Mixture were aliquoted to plates using Biotek μFill (Biotek Instruments). Control mixtures were manually added to designated wells. A library compound was added at a desired concentration by pin transfer to both “with enzyme” and “no enzyme” plates. Compounds were added in at least triplicate (with enzyme reaction in duplicate and no enzyme controls) at a final concentration of roughly 50 μM. The plates were incubated at 37° C. for 30-60 minutes. Then 25 μl of 1× Developer II (BIOMOL) plus 2 mM nicotinamide were added to all wells to stop the reactions. The reactions were left for at least 30 minutes at 37° C. for the signal to develop. The plates were read in a microplate-reading fluorometer capable of excitation at a wavelength in the range of 350-380 nm and detection of emitted light in the range of 440-460 nm. A read time of 0.1 sec per well was used.

recombinant GST-Sir2 = recombinant GST-Sir2 (Saccharomyces cerevisiae, UniProt P06700); test: Sir2 deacetylation assay; format: biochemical, S. cerevisiae; conditions: in vitro dose-response
Method: To investigate whether these compounds could stimulate sirtuins in vivo, we utilized S. cerevisiae, an organism in which the upstream regulators and downstream targets of Sir2 are relatively well understood.
(§1) His6-tagged recombinant SIRT1 and GST-tagged recombinant Sir2 were prepared as previously described^26. From 0.1 to 1 μg of SIRT1 and 1.5 μg of Sir2 were used per deacetylation assay (in 50 μl total reaction) as previously described^26. SIRT1 assays and certain of those for Sir2 employed the p53-382 acetylated substrate (‘Fluor de Lys-SIRT1’, BIOMOL) rather than FdL.
Themed compound libraries (BIOMOL) were used for primary and secondary screening. […] For water soluble compounds and negative controls, 1% v/v DMSO was added to the assay. […] HeLa cells were grown and the cellular deacetylation assays were performed and read, as above, but in full-volume 96-well microplates (Corning Costar 3595). […] Calculation of net fluorescence increases included subtraction of a blank value, which in the case of Sir2 was obtained by omitting the enzyme from the reaction and in the case of SIRT1 by adding an inhibitor (200 μM suramin or 1 mM nicotinamide) to the reaction prior to the acetylated substrate. […]

recombinant human SIRT1 = molecular target: T2, recombinant human SIRT1 (Homo sapiens, UniProt Q96EB6); test: SIRT1 fluorescent deacetylation assay (p53-382 acetylated peptide substrate); format: biochemical; conditions: 100 μM resveratrol
T2 sequence (Q96EB6 1-747): T1 sequence (Q96EB6 1-747)
Excerpt: To identify compounds that modulate SIRT1 activity, we screened a number of small molecule libraries using a fluorescent deacetylation assay in 96-well plates^26. The substrate used in the assay was a fluorogenic peptide based on the sequence encompassing the p53-K382 acetylation site, a known target of SIRT1 in vivo^20,21,27. This substrate was preferred over a variety of other fluorogenic peptide substrates that were based on other known HDAC targets (FIG. 5). The small molecule libraries included analogues of nicotinamide, ε-acetyl lysine, NAD^+, nucleotides, nucleotide analogues and purinergic ligands. From the initial screen, several sirtuin inhibitors were found (Supplementary Table 7). However, the most striking outcome was the identification of two compounds, quercetin and piceatannol, that stimulated SIRT1 activity five and eight-fold, respectively (Table 1). Both quercetin and piceatannol have been previously identified as protein kinase inhibitors^28,29.
as §1
Themed compound libraries (BIOMOL) were used for primary and secondary screening. […] For water soluble compounds and negative controls, 1% v/v DMSO was added to the assay. […] HeLa cells were grown and the cellular deacetylation assays were performed and read, as above, but in full-volume 96-well microplates (Corning Costar 3595). Unless otherwise indicated all initial rate measurements were means of three or more replicates, obtained with single incubation times, at which point 5% or less of the substrate initially present had been deacetylated. Calculation of net fluorescence increases included subtraction of a blank value, which in the case of Sir2 was obtained by omitting the enzyme from the reaction and in the case of SIRT1 by adding an inhibitor (200 μM suramin or 1 mM nicotinamide) to the reaction prior to the acetylated substrate. […] All error bars represent the standard error of the mean.
All SIRT1 rate measurements used in the calculation of “Ratio to Control Rate” were obtained with 25 μM NAD^+ and 25 μM p53-382 acetylated peptide substrate were performed as described above and in K. T. Howitz et al. Nature (2003) 425: 191. All ratio data were calculated from experiments in which the total deacetylation in the control reaction was 0.25-1.25 μM peptide or 1-5% of the initial concentration of acetylated peptide.

S. cerevisiae = test: Yeast replicative lifespan by micro-manipulation; conditions: for Average lifespan, growth on resveratrol: wild type untreated 21.0

Chain of recombinant GST-Sir2 (P06700 whole entry): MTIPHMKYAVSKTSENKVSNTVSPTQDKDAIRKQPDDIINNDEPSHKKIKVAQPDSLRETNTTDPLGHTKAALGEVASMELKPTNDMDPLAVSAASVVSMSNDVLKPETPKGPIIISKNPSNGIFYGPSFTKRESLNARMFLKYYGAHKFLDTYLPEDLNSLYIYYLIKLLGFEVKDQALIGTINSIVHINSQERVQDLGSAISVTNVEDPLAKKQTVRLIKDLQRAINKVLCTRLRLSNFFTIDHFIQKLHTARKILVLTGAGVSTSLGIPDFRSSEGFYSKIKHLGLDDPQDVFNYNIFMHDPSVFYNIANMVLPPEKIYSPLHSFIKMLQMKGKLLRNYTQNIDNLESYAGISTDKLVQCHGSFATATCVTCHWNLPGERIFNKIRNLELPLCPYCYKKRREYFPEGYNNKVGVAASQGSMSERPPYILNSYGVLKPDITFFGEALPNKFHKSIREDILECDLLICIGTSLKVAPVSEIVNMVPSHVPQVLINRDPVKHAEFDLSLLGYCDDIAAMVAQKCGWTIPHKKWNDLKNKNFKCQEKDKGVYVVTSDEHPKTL

## Oc1ccc(/C=C/c2cc(O)cc(O)c2)cc1 [Resveratrol, 3,5,4′-Trihydroxy-trans-stilbene]
[1]; 0.5 μM resveratrol, 4 hours pre-treatment, UV radiation
  level of Ac-K382 compared to untreated cells: marked decrease
[1]; >50 μM resveratrol
  level of Ac-K382 at higher concentrations: the effect was reversed
SIRT1 deacetylase
  activation of SIRT1 (positive controls): 2.2 fold
Recombinant GST-Sir2
  concentrations at which inhibition of Sir2 was seen: greater than 100 μM
Recombinant human SIRT1; 1 mM p53-382 acetylated peptide, control 1863
  Vmax (+resveratrol), NAD+ varied: 1749 AFU/min.
Recombinant human SIRT1; 3 mM NAD+, control 1107
  Vmax (+resveratrol), p53-382 acetylated peptide varied: 926 AFU/min.
S. cerevisiae; 10 μM, complete 2% glucose medium, wild type untreated 22.9
  Average lifespan: 36.8 generations
S. cerevisiae; 10 μM
  Average lifespan, growth on resveratrol: 35.7 generations
S. cerevisiae; 100 μM
  Average lifespan, growth on resveratrol: 29.4 generations
S. cerevisiae; 500 μM
  Average lifespan, growth on resveratrol: 29.3 generations
S. cerevisiae; glucose restriction
  Average lifespan, glucose-restricted+resveratrol (CR+R): 39.9 generations
S. cerevisiae; pnc1Δ untreated 19.2
  Average lifespan, pnc1Δ+resveratrol: 33.1 generations
S. cerevisiae; sir2Δ untreated 9.9
  Average lifespan, sir2Δ+resveratrol: 10.0 generations
S. cerevisiae; wild type untreated 19.0
  Average lifespan, wild type+resveratrol (wt+R): 37.8 generations
